Where a SMILES comes first, the peptide text is derived from it.

The target of data set [1] is [3H]-LCGA-17 binding site in rat brain membranes (putative α2δ). Briefly: [3H]-LCGA-17 radioligand competition binding assay. Conditions: rat brain membranes. A general note: In a radioligand displacement assay an active substance lowers the binding of a labelled ligand.
Data set [2] deals with BALB/c mice. Briefly: Elevated plus maze (EPM). Format: in vivo. The protocol:
The open field test (OFT) was used to assess locomotion. The total distance traveled in a 5 min session was recorded using Ethovision XT14 ([Prut and Belzung, 2003]). The elevated plus maze (EPM) and the marble burying test (MBT) were used to assess anxiolytic-like drug activity. For the EPM ([Pellow et al., 1985]), the percentage of time spent in the open arms, the percentage of open arm entries, and the number of total arm entries during a 5-min session were recorded using Ethovision. “Anxiety Index” (AI), an integrative behavioral measure in the EPM was calculated as follows: 100 × {1 − [(time spent on open arms/total time on the maze)/2 + (number of entries to the open arms/total exploration on the maze)/2]} ([Cohen et al., 2011]). The MBT ([Njung’e and Handley, 1991]) was carried out in a 19 × 29 × 13 cm cage filled 5 cm deep with wood-chip bedding. Twenty marbles (5.2 g, 15 mm diameter, randomly colored) were evenly placed on the surface of the bedding in four rows of five pieces. At the end of a 30 min test, the animal was removed, and the marbles buried in bedding by at least two-thirds were recorded. […] The forced swim test (FST) was used for a preliminary assessment of antidepressant drug activity as described ([Colelli et al., 2014]). Briefly, on day one the mice were exposed to a 10 min pre-swim in a cylinder filled with 24 ± 1°C water. The next day they were re-exposed to the same apparatus for a 5 min test session with the behavior video recorded. The total time spent immobile was quantitated off-line visually. The interval between sequential behavioral tests was 2–3 days with the sequence OFT, EPM, MBT, and FST. All the testing and data analyses were performed by experimenters blind to treatment.

A short description of data set [3]: Preliminary pharmacokinetic studies. It counts as in vivo. As to conditions: preliminary and ongoing pharmacokinetic studies.
Data set [4] has as its system Danio rerio. The data set is described as follows: Novel tank test (NTT). Format: in vivo. As to conditions: exp group; for NTT. Time spent in upper half of tank, Median: 10 min after injection, 5 min. The protocol: (§1) Control groups were treated in parallel with vehicle alone. For drug injection, the fish were anesthetized briefly by placing them in 10°C water. The vehicle controls were tested in parallel.
(§2) Behavioral testing was initiated 10 min after drug injection, starting with the novel tank test (NTT), followed immediately thereafter by the light–dark box (LDB) and the social preference test (SPT). The NTT was adapted from [Maximino et al. (2013)] with the behavior video-recorded and the data processed using EthoVision XT14 (Noldus). The distance traveled, speed, number of visits to the bottom, middle and top thirds of the aquarium, respectively, and the times spent in each of these zones during the initial 5 min in the tank were recorded. A decreased time spent at the surface of the NTT apparatus reflects a reduction in exploratory behavior or increased hiding motivation ([Sackerman et al., 2010]). The behavior in the LDB ([Maximino et al., 2011]) and SPT ([Parker et al., 2014]) was video recorded and processed using RealTimer (Open Science LCC, Russia). The fish were added to the center zone of a three-zone aquarium and allowed to adapt for 1–2 min before removal of the septa separating the center from the flanking zones. The time spent and the number of visits to the light and dark flanking zones and the latency to enter the lit zone were recorded during a 5-min session. Stress of fish is associated with increased time spent in the dark compartment (scototaxis) ([Maximino et al., 2011]). For the SPT, the residence time and the number of visits to the three equally sized zones (near the shoal, in the center zone of the aquarium, and near the wall opposite to the shoal) were assessed during a 5-min session. Increased shoal preference (shoaling reflex) is thought to represent a protective response to a predator ([Nguyen et al., 2014]). All behavioral testing was done in the light phase using 500 lux (NTT, LDB) or 200 lux (SPT) illumination.

Data set [5] deals with Danio rerio. Briefly: Light–dark box (LDB). Conditions: for LDB. Time spent in lit compartment, Median: 5 min session, exp group; for LDB, effect on time spent in the lit compartment vs vehicle: most informative dosage, Figure 2C. Format: in vivo. On the procedure:
as §1, §2

Data set [6] has as its system Danio rerio. The data set is described as follows: Social preference test (SPT). Conditions: for SPT. Time spent out of shoaling zone, Median: 5 min session, exp group; for SPT, effect on time spent out of the shoaling zone vs vehicle: most informative dosage, Figure 2D. Format: in vivo. On the procedure: as §1, §2
For data set [7], the system named is BALB/c mice. Briefly: Open field test (OFT). Format: in vivo. Conditions: diazepam 0.75 mg/kg. The protocol: (§3) The open field test (OFT) was used to assess locomotion. The total distance traveled in a 5 min session was recorded using Ethovision XT14 ([Prut and Belzung, 2003]). The elevated plus maze (EPM) and the marble burying test (MBT) were used to assess anxiolytic-like drug activity. For the EPM ([Pellow et al., 1985]), the percentage of time spent in the open arms, the percentage of open arm entries, and the number of total arm entries during a 5-min session were recorded using Ethovision. “Anxiety Index” (AI), an integrative behavioral measure in the EPM was calculated as follows: 100 × {1 − [(time spent on open arms/total time on the maze)/2 + (number of entries to the open arms/total exploration on the maze)/2]} ([Cohen et al., 2011]). The MBT ([Njung’e and Handley, 1991]) was carried out in a 19 × 29 × 13 cm cage filled 5 cm deep with wood-chip bedding. Twenty marbles (5.2 g, 15 mm diameter, randomly colored) were evenly placed on the surface of the bedding in four rows of five pieces. At the end of a 30 min test, the animal was removed, and the marbles buried in bedding by at least two-thirds were recorded. […] The next day they were re-exposed to the same apparatus for a 5 min test session with the behavior video recorded. The total time spent immobile was quantitated off-line visually. […]

Data set [8] relates to BALB/c mice. Briefly: Marble burying test (MBT). Format: in vivo. Conditions: diazepam 0.75 mg/kg. The protocol:
as §3

In data set [9] the test system is BALB/c mice. The data set is described as follows: Forced swim test (FST). Format: in vivo. Conditions: LCGA-17 5 mg/kg (none of the other dosages); diazepam 0.75 mg/kg. On the procedure: as §3
Setting [10] is: LCGA-17 20 mg/kg + bicuculline 5 mg/kg.
Setting [11] is: bicuculline study: LCGA-17 20 mg/kg or bicuculline 5 mg/kg alone.
[12] abbreviates: LCGA-17 groups 1, 5, 10, 20 mg/kg combined.

The compound `CN1CCc2cc3c(cc2[C@H]1[C@@H]1OC(=O)c2c1ccc1c2OCO1)OCO3` [Bicuculline] showed an IC50 in data set [1] (competition of [3H]-LCGA-17 (16 nM) binding, Table S1) of over 100 µM. Also, the “cross-reactivity with / competition at the [3H]-LCGA-17 binding site” value in [1] (result in words) is “no cross-reactivity”. Moreover, in data set [2] (setting [10]), the “EPM, effect of co-administered bicuculline on the LCGA-17 effect on % time on open arms” value was “completely blocked”; the “EPM, effect of co-administered bicuculline on the LCGA-17 effect on open arm entries” value is given as “reduced the LCGA-17 effect”; the “EPM, effect of cotreatment with bicuculline on the LCGA-17 effect on AI” value is on record as “reversed”. Further, the “EPM, effect on open arm entries, single agent” value in [2] (bicuculline 5 mg/kg alone) was “without effects”. Besides, the “EPM, effect on total arm entries” value in data set [2] (bicuculline 5 mg/kg main effect, post hoc pairwise comparisons not significant) is given as “slightly reduced”. For the same compound, in data set [2] (setting [11]), the “EPM, effect on % time on open arms, single agent” value is given as “no effect” and the “EPM, effect on Anxiety Index (AI), single agent” value was “without effects”.
With `NC(=O)CC[C@H](NC(=O)[C@@H](N)Cc1ccccc1)C(=O)N[C@@H](CO)C(=O)N[C@@H](CCC(=O)O)C(=O)O` [LCGA-17, PheGlnSerGlu] (H-FQSE-OH; N-terminus and C-terminus assumed), the in vivo half-life result in [3] is “minutes”.
With `CN1C(=O)CN=C(c2ccccc2)c2cc(Cl)ccc21` [Diazepam], the “NTT. Distance traveled, Median” value in data set [4] (1.25 mg/kg) was found to be 887 cm; in data set [4] (5 mg/kg), 595 cm. Besides, the figures for the “LDB. Time spent in lit compartment, Median” value in [5] (1.25 mg/kg) and in data set [5] (5 mg/kg) were 21 s and 177 s, respectively. The “LDB, effect on time spent in the lit compartment vs vehicle” value in [5] is reported as “anxiolytic-like effect”. The “SPT. Time spent out of shoaling zone, Median” value in data set [6] (1.25 mg/kg) is 20 s; in [6] (5 mg/kg), 21 s. Further, the “SPT, effect on time spent out of the shoaling zone vs vehicle” value in data set [6] is given as “anxiolytic-like effect”. Moreover, the “EPM, effect on percentage of time spent on open arms vs vehicle” value in [2] (mouse, in vivo) was “increased”. The “OFT, effect on distance traveled vs vehicle” value was “modestly increased” in data set [7] (LCGA-17 5, 20 mg/ml as printed, 5 min session) and “increased” in [7] (setting [12]). The “MBT, effect on number of marbles buried vs vehicle” value in data set [8] (LCGA-17 5, 20 mg/kg, 30 min test) is recorded as “reduced”; in data set [8] (setting [12]), “reduced”. The “FST, effect on total time spent immobile vs vehicle” value in data set [9] was “failed to affect the behavior”.
As for “PheLeuProTyr (FLPY; printed: PheLeuProTyr) [LCGA-83]”, the entries for the “NTT. Time spent in upper half of tank, Median” value in data set [4] (1 mg/kg i.p.) and in data set [4] (10 mg/kg) were 73 s and 76 s, respectively. Besides, the figures for the “NTT. Distance traveled, Median” value in [4] (1 mg/kg i.p.) and in data set [4] (10 mg/kg) were 1500 cm and 1589 cm, respectively. The “LDB. Time spent in lit compartment, Median” value was determined as 128 s in data set [5] (1 mg/kg i.p.) and 249 s in data set [5] (10 mg/kg). In data set [5], the “LDB, effect on time spent in the lit compartment vs vehicle” value was “Neither fluvoxamine (5 mg/kg) nor LCGA-59 and LCGA-83 (10 mg/kg) affected the behavior”. Moreover, the “SPT. Time spent out of shoaling zone, Median” value in data set [6] (1 mg/kg i.p.) was found to be 37 s; in data set [6] (10 mg/kg), 46 s. Besides, in [6], the “SPT, effect on time spent out of the shoaling zone vs vehicle” value was “failed to affect behavior”.

Broadly, the IC50 is the midpoint of a concentration-inhibition curve.

For the origin of these results see PMC8372404 (Frontiers in Neuroscience, 2021).
